Source: US10477864B2, “Microbiocidal quinoline (thio)carboxamide derivatives” (priority 2016, dated 2019)

How the values were obtained:
[1] = tested on: Botryotinia fuckeliana (Botrytis cinerea); assay: Botryotinia fuckeliana (Botrytis cinerea) / liquid culture (gray mould); type: cell-based; conditions: 72 h, read-out: control of Botryotinia fuckeliana
Fusarium culmorum [2] = assay: microbe, parasite or virus in culture; type: cell-based; conditions: read-out: control of Fusarium culmorum
Fusarium culmorum [3] = assay: whole plant or invertebrate; type: in vivo; conditions: in Triticum aestivum, read-out: control of Fusarium culmorum
Gaeumannomyces graminis = Gaeumannomyces graminis / liquid culture (take-all of cereals); type: cell-based; conditions: read-out: control of Gaeumannomyces graminis
[4] = tested on: Magnaporthe grisea (Pyricularia oryzae); assay: microbe, parasite or virus in culture; type: cell-based; conditions: 72 h, read-out: control of Magnaporthe grisea
[5] = tested on: Glomerella lagenarium (Colletotrichum lagenarium); assay: Glomerella lagenarium (Colletotrichum lagenarium) / liquid culture (anthracnose); type: cell-based; conditions: Colletotrichum orbiculare; read-out: control of Glomerella lagenarium
[6] = tested on: Monographella nivalis (Microdochium nivale); assay: Monographella nivalis (Microdochium nivale) / liquid culture (foot rot cereals); type: cell-based; conditions: 96 h, read-out: control of Monographella nivalis

Row | SMILES | inhibition of growth at 200 ppm [1] | inhibition of growth at 200 ppm (Fusarium culmorum [2]) | pest or weed control at 200 ppm (Fusarium culmorum [3]) | inhibition of growth at 200 ppm (Gaeumannomyces graminis) | inhibition of growth at 200 ppm [4] | melting point | inhibition of growth at 200 ppm [5] | inhibition of growth at 200 ppm [6]
1 | O=C(NC(CCC(F)(F)F)Cc1ccccc1)c1cnc2c(Cl)cccc2c1 (centres unmarked) [Compound E-17, N-(1-benzyl-4,4,4-trifluoro-butyl)-8-chloro-quinoline-3-carboxamide] | ≥ 80% | ≥ 80% | ≥ 80% | ≥ 80% | ≥ 80% | 163 to 167 °C |  | 
2 | Cc1cccc2cc(C(=O)NC(CCC(F)(F)F)Cc3ccccc3)cnc12 (centres unmarked) [Compound E-19, N-(1-benzyl-4,4,4-trifluoro-butyl)-8-methyl-quinoline-3-carboxamide] | ≥ 80% | ≥ 80% | ≥ 80% | ≥ 80% | ≥ 80% | 158 to 161 °C |  | 
3 | C=CCC(C)(Cc1ccccc1)NC(=O)c1cnc2ccccc2c1 (centres unmarked) [Compound E-37, N-(1-benzyl-1-methyl-but-3-enyl)quinoline-3-carboxamide] | ≥ 80% | ≥ 80% |  | ≥ 80% | ≥ 80% |  | ≥ 80% | ≥ 80%
4 | C=CCC(C)(Cc1ccccc1)NC(=O)c1cnc2c(F)cccc2c1 (centres unmarked) [Compound E-38, N-(1-benzyl-1-methyl-but-3-enyl)-8-fluoro-quinoline-3-carboxamide] | ≥ 80% | ≥ 80% | ≥ 80% | ≥ 80% | ≥ 80% |  | ≥ 80% | ≥ 80%
5 | CC(C)CC(C)(Cc1ccccc1)NC(=O)c1cnc2cc(F)ccc2c1 (centres unmarked) [Compound E-40, N-(1-benzyl-1,3-dimethyl-butyl)-7-fluoro-quinoline-3-carboxamide] | ≥ 80% | ≥ 80% |  | ≥ 80% | ≥ 80% | 142 to 144 °C | ≥ 80% | 
6 | CCCC(C)(Cc1ccccc1)NC(=O)c1cnc2c(F)cccc2c1 (centres unmarked) [Compound E-42, N-(1-benzyl-1-methyl-butyl)-8-fluoro-quinoline-3-carboxamide] | ≥ 80% | ≥ 80% | ≥ 80% | ≥ 80% | ≥ 80% |  | ≥ 80% | ≥ 80%
7 | CC(C)CC(C)(Cc1cccc(C#N)c1)NC(=O)c1cnc2c(F)cccc2c1 (centres unmarked) [Compound E-46, N-[1-[(3-cyanophenyl)methyl]-1,3-dimethyl-butyl]-8-fluoro-quinoline-3-carboxamide] | ≥ 80% | ≥ 80% |  | ≥ 80% | ≥ 80% | 45 to 46 °C | ≥ 80% | 
8 | C=C(C)CC(Cc1ccccc1)(NC(=O)c1cnc2c(F)cccc2c1)C1CC1 (centres unmarked) [Compound E-53, N-(1-benzyl-1-cyclopropyl-3-methyl-but-3-enyl)-8-fluoro-quinoline-3-carboxamide] | ≥ 80% | ≥ 80% |  | ≥ 80% | ≥ 80% |  | ≥ 80% | ≥ 80%
9 | CC(C)(C)C[C@@](C)(Cc1ccccc1)NC(=O)c1cnc2c(F)cccc2c1 [Compound F-18, N-[(1S)-1-benzyl-1,3,3-trimethyl-butyl]-8-fluoro-quinoline-3-carboxamide] | ≥ 80% | ≥ 80% | ≥ 80% | ≥ 80% |  |  | ≥ 80% | ≥ 80%
